The results in this text go back to paper PMC5222732 (Journal of medicinal chemistry, 2016).

The test system of series [1] is μ opioid receptor (MOR). The series is classed as cell-based, guinea pig.
For series [2], the target named is bovine serum albumin (BSA) (Bos taurus, UniProt P02769). Briefly: Determination of serum albumin binding. The series is classed as in vitro ADME. The following applies: BSA 20 mg/mL, pH 7.4, 37 °C, 24-96 h.
Series [3] concerns the target mouse vas deferens (MVD), DOR (Mus musculus, UniProt P32300). Briefly: DOR-representative MVD functional assay. The format is cell-based.
Series [4] has as its target κ opioid receptor (KOR) (Cavia porcellus, UniProt P41144). Briefly: GPI functional assay, κ antagonist Ke. The format is cell-based, guinea pig.
The nature of series [5]: Plasma stability assay. The series is classed as in vitro ADME. The conditions noted are these: 37 °C.
The nature of series [6]: In vivo brain uptake study, LC-MS/MS.
Series [7] has as its target μ opioid receptor (MOR) (Rattus norvegicus, UniProt P33535). The format is binding.
The subject of series [8] is Sprague-Dawley rats. Nature of the series: Tail heat algesia test. The format is in vivo. The conditions noted are these: rat, 1 mg/kg iv, morphine 4 mg/kg sc.
In series [9] the test system is Sprague-Dawley rats. Briefly: Hot plate algesia test. The following applies: rat; for effect on morphine analgesia, heat withdrawal threshold (hot plate): morphine 4 mg/kg sc. The series is classed as in vivo.
Series [10] has as its target δ receptors (DOR) (Rattus norvegicus, UniProt P33533). Briefly: δ opioid receptor binding, [3H]DSLET displacement from rat brain membranes. The conditions noted are these: compared with cyclodal.

Where “and” joins values, the source holds several entries; their conditions need not be identical. Equal entries are not always repeated. Where two headings read alike, the source gives them in different places.

Sequence of mouse vas deferens (MVD), DOR (P32300 whole entry): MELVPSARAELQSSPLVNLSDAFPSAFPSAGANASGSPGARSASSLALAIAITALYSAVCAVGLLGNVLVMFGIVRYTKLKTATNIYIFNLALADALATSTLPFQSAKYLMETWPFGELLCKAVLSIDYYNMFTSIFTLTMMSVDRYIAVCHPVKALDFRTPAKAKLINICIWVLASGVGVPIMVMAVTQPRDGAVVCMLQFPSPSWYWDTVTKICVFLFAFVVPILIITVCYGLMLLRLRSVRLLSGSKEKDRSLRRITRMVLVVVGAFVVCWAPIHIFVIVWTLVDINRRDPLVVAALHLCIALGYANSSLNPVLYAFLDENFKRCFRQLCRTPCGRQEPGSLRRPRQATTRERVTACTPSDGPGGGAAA
Sequence of κ opioid receptor (KOR) (P41144 whole entry): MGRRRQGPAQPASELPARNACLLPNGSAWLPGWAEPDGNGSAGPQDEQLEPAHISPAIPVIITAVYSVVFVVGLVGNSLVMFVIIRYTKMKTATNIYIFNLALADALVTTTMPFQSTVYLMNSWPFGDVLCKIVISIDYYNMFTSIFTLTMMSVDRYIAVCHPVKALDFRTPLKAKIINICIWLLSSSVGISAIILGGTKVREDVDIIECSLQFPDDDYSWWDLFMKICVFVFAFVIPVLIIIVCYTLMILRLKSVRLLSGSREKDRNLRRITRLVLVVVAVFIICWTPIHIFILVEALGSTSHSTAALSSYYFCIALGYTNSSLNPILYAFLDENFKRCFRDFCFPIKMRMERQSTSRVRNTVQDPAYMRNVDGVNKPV
Sequence of μ opioid receptor (MOR) (Rattus norvegicus, UniProt P33535) (P33535 whole entry): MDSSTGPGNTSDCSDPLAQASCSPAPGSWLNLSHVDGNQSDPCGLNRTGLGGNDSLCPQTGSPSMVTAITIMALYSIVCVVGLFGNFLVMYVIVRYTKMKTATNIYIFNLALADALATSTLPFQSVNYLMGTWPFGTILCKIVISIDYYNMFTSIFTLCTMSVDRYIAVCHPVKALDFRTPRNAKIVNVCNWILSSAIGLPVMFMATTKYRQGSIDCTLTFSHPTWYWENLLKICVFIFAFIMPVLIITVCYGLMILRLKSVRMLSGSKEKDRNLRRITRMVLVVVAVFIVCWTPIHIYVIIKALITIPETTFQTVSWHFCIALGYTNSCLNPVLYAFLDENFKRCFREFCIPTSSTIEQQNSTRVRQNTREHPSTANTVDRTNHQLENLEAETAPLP
Sequence of bovine serum albumin (BSA) (P02769 25-607): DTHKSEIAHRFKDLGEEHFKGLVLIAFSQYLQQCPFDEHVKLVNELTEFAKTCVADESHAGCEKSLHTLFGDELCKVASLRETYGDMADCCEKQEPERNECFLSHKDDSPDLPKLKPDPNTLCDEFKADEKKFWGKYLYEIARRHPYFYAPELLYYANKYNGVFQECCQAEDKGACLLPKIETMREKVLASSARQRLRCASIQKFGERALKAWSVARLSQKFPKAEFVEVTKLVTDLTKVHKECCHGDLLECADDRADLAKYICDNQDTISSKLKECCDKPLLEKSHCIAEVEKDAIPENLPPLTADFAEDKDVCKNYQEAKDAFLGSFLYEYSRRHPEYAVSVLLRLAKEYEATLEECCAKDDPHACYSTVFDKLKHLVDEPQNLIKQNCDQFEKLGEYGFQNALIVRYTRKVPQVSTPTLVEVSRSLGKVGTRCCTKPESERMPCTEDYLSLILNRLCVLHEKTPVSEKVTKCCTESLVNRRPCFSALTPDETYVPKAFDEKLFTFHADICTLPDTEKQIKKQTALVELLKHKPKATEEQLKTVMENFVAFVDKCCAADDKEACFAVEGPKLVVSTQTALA
Sequence of δ receptors (DOR) (P33533 whole entry): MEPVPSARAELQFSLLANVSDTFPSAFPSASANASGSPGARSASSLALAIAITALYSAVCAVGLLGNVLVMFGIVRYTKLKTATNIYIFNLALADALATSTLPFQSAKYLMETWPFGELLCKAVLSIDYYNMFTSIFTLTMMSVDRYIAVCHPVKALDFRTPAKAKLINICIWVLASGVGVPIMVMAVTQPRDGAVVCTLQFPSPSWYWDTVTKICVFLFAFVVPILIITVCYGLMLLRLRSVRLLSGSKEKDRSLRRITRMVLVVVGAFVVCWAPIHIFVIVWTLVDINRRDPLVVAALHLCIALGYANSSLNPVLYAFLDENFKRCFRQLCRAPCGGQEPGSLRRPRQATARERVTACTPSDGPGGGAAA

For `Cc1cc(O)cc(C)c1C[C@@H]1NC(=O)[C@H](CCCCN)NC(=O)[C@H](Cc2ccccc2)NC(=O)[C@@H](CCCNC(=N)N)NC1=O` [compound 1, c[-D-Arg-Phe-Lys-Dmt-]], the “GPI Ke (MOR antagonist)” value in series [1] is 3.12 ± 0.20 nM and 3.06 ± 0.62 nM. In [1], the “GPI Ke^μ” value is 3.26 ± 0.84 nM. In addition, the BSA absorption entry in series [2] is “No decrease in peptide peak intensity was observed”. Besides, the “activity in the MVD assay” value in series [3] was “low efficacy partial agonist activity”; in [3] (listed as cyclodal), “weak DOR partial agonist”. Moreover, the Kb (as a rule, the equilibrium dissociation constant of an antagonist, usually derived from a functional assay) in series [4] (GPI Ke (KOR antagonist), against dynorphin A(1-13)) came to 206 ± 24 nM; in series [4] (GPI Ke^κ, determined against U50,488) it was 40.3 ± 2.6 nM. For the same compound, the “stability in rat plasma” value in series [5] is recorded as “stable for up to 48 h”. The “plasma AUC” value in series [6] (male CD1 mice, 2 mg/kg iv) came to 0.0303 µg·min/mL. Besides, the “time of maximum brain concentration” value in series [6] (mice, 2 mg/kg iv, after administration) is recorded as 30 min. Besides, in series [7], the “higher MOR binding affinity” value is recorded as 20 fold. The “effect on tail withdrawal latency (TWL) after morphine” value in series [8] is “not at a dose of 1 mg/kg”. Moreover, the “effect on morphine analgesia, heat withdrawal threshold (hot plate)” value in series [9] (1 mg/kg iv) is listed as “not at the 1 mg/kg dose”; in [9] (5 mg/kg iv), “morphine analgesia at the 30 min time point was reduced”.

On to `CCCC[C@@H]1NC(=O)[C@H](Cc2ccccc2)NC(=O)[C@@H](CCCNC(=N)N)NC(=O)[C@H](Cc2c(C)cc(O)cc2C)NC1=O` [compound 4, c[-D-Arg-Phe-Nle-Dmt-]], for which, in [3], the “activity in the MVD assay” value is “low efficacy partial agonist activity”.

With `Cc1cc(O)cc(C)c1C[C@@H]1NC(=O)[C@H](CCCN)NC(=O)[C@H](Cc2ccccc2)NC(=O)[C@@H](CCCNC(=N)N)NC1=O` [compound 6, c[-D-Arg-Phe-Orn-Dmt-]], the “GPI Ke^μ” value in series [1] came to 16.8 ± 2.6 nM. Further, the “activity in the MVD assay” value in series [3] was “low efficacy partial agonist activity”.

In the case of `Cc1cc(O)cc(C)c1C[C@@H]1NC(=O)C[C@H](CCCCN)NC(=O)[C@H](Cc2ccccc2)NC(=O)[C@@H](CCCNC(=N)N)NC1=O` [compound 7, c[-D-Arg-Phe-β-hLys-Dmt-]], the “GPI Ke^μ” value in series [1] amounted to 10.5 ± 1.1 nM. Besides, the “MVD IC50” value in series [3] was “inactive”. In addition, in series [4], the Kb was found to be 18.2 ± 1.7 nM and the “more potent KOR antagonist” value is listed as 2 fold. For the same compound, the “lower DOR binding affinity” value in series [10] is listed as 11 fold. Moreover, in series [7], the “Ki ratio μ/δ/κ” value is reported as 1/135/6 and the “reduced/lower MOR binding affinity” value was found to be 2 fold.

Turning to `Cc1cc(O)cc(C)c1C[C@H](N)C(=O)N[C@H](CCCNC(=N)N)C(=O)N[C@@H](Cc1ccccc1)C(=O)N[C@@H](CCCCN)C(N)=O` [compound 9, H-Dmt-D-Arg-Phe-Lys-NH2], the BSA absorption result in series [2] was “No decrease in peptide peak intensity was observed”. Also, the “brain AUC” value in [6] (male CD1 mice, 2 mg/kg iv) was 0.352 µg·min/g. Moreover, the AUC (usually the area under the concentration-time curve, a measure of exposure) in series [6] (male, CD1, mouse, in vivo, iv, 2 mg/kg) was 83 ng·h/mL.

Regarding `C[C@@H](O)[C@H](NC(=O)[C@H]1NC(=O)[C@H]([C@@H](C)O)NC(=O)[C@H](CCCN)NC(=O)[C@@H](Cc2c[nH]c3ccccc23)NC(=O)[C@H](Cc2ccc(O)cc2)NC(=O)[C@@H](NC(=O)[C@H](N)Cc2ccccc2)CSSC1(C)C)C(N)=O` [compound 10, H-D-Phe-c[Cys-Tyr-D-Trp-Orn-Thr-Pen]-Thr-NH2, reference compound], in [1], the “GPI Ke^μ” value was found to be 40.9 ± 2.7 nM. Further, in series [3], the “activity in the MVD assay” value is “low efficacy partial agonist activity”. This compound came in with a Kb in series [4] of 6940 ± 580 nM.

Take `CN1CC[C@]23c4c5ccc(O)c4O[C@H]2[C@@H](O)C=C[C@H]3[C@H]1C5` [morphine, reference compound]: the “analgesia, heat withdrawal threshold (hot plate)” value in series [9] (4 mg/kg sc, compared to vehicle) was “produced analgesia compared to vehicle at the 30 and 60 min time points”.
